Where two headings read alike, the source gives them in different places. One block for each compound: values may come before it.
What was measured:
[1] = system: Erysiphe graminis f.sp. hordei; test: Erysiphe test (barley) / protective; assay type: in vivo; settings: Blumeria graminis, 168 h, read-out: efficacy
Procedure: Erysiphe Test (Barley)/Protective
(§1) To produce a suitable preparation of active compound, 1 part by weight of active compound is mixed with the stated amounts of solvent and emulsifier, and the concentrate is diluted with water to the desired concentration.
To test for protective activity, young plants are sprayed with the active compound preparation at the stated application rate. After the spray coating has dried on, the plants are dusted with spores of Erysiphe graminis f.sp. hordei. The plants are placed in a greenhouse at a temperature of about 20° C. and a relative atmospheric humidity of about 80% to promote the development of mildew pustules.
Evaluation is carried out 7 days after the inoculation. 0% means an efficacy which corresponds to that of the control, whereas an efficacy of 100% means that no infection is observed.

[2] = system: Puccinia recondite; test: Puccinia test (wheat) / protective; assay type: in vivo; settings: 240 h, read-out: efficacy
Procedure: Puccinia Test (Wheat)/Protective
as §1
To test for protective activity, young plants are sprayed with the active compound preparation at the stated application rate. After the spray coating has dried on, the plants are sprayed with a conidia suspension of Puccinia recondite. The plants remain in an incubation cabin at 20° C. and 100% relative atmospheric humidity for 48 hours. The plants are then placed in a greenhouse at a temperature of about 20° C. and a relative atmospheric humidity of 80% to promote the development of rust pustules.
Evaluation is carried out 10 days after the inoculation. 0% means an efficacy which corresponds to that of the control, whereas an efficacy of 100% means that no infection is observed.

[3] = logP determination
[4] = pH 2.3
[5] = system: Sphaerotheca fuliginea; test: Sphaerotheca test (cucumber) / protective; assay type: in vivo; settings: Podosphaera fuliginea, 168 h, read-out: efficacy
Procedure: Sphaerotheca Test (Cucumber)/Protective [table] To produce a suitable preparation of active compound, 1 part by weight of active compound is mixed with the stated amounts of solvent and emulsifier, and the concentrate is diluted with water to the desired concentration. To test for protective activity, young cucumber plants are sprayed with the active compound preparation at the stated application rate. 1 day after the treatment, the plants are inoculated with a spore suspension of Sphaerotheca fuliginea.

[6] = barley, protective, active compound concentration 1000 ppm, evaluation 7 days after inoculation
[7] = wheat, protective, active compound concentration 1000 ppm, evaluation 10 days after inoculation
[8] = cucumber, protective, active compound concentration 500 ppm, evaluation 7 days after inoculation

logP ([3]; logP acid, acid): 2.67
Compound: CCN(C)C=Nc1cc(CF)c(-c2ccc(C(C)(C)C)cc2)cc1C [Compound 2, N-ethyl-N-methyl-N′-[4-(4-tert-butylphenyl)-5-fluoromethyl-2-methylphenyl]formamidine]
pest or weed control at 1000 ppm [1, 6]: ≥ 70%
pest or weed control at 1000 ppm [2, 7]: ≥ 70%

log P (pH2.3) [4]: 5.68
Compound: 4-(3-tertButylphenoxy)-5-trifluoromethyl-2-methylnitrobenzene

logP ([3]; logP acid, acid): 3.13
logP ([3]; logP neutral, neutral): 6.3
Compound: Cc1cc(Oc2ccc(Cl)c(C(C)(C)C)c2)c(C(F)(F)F)cc1N=CN(C)C [Compound 8, N,N-dimethyl-N′-[4-(3-tert-butyl-4-chlorophenoxy)-5-trifluoromethyl-2-methylphenyl]formamidine]
pest or weed control at 1000 ppm [1, 6]: ≥ 70%
pest or weed control at 1000 ppm [2, 7]: ≥ 70%
pest or weed control at 500 ppm [5, 8]: ≥ 70%

logP ([3]; pH 2.3, log P (pH2.3), pH 2.3): 4.67
Compound: Cc1cc(Oc2cccc(C(C)(C)C)c2)c(C(F)(F)F)cc1N [4-(3-tertButylphenoxy)-5-trifluoromethyl-2-methylaniline]

Compound: Cc1cc(Oc2cccc(C(C)C)c2)c(C(F)F)cc1N=CN1CCCCC1 [Compound 14, N-piperidinyl-N'-[4-(3-iso-propylphenoxy)-5-difluoromethyl-2-methylphenyl]formamidine]
logP acid ([3]; acid): 2.60

Compound: CCN(C)C=Nc1cc(C(F)F)c(Oc2ccccc2)cc1C [Compound 13, N-ethyl-N-methyl-N′-[4-phenoxy-5-difluoromethyl-2-methylphenyl]formamidine]
pest or weed control at 500 ppm [5]: ≥ 70%
logP ([3]; logP acid, acid): 1.73

Compound: CCN(C)C=Nc1cc(C(F)(F)F)c(Oc2cccc(C(C)C)c2)cc1C [Compound 4, N-ethyl-N-methyl-N′-[4-(3-iso-propylphenoxy)-5-trifluoromethyl-2-methylphenyl]formamidine]
pest or weed control at 1000 ppm [1]: ≥ 70%
pest or weed control at 1000 ppm [2]: ≥ 70%
pest or weed control at 500 ppm [5]: ≥ 70%
logP ([3]; logP acid, acid): 2.65
logP ([3]; logP neutral, neutral): 5.74

logP ([3]; logP acid, acid): 2.93
Compound: CCN(C)C=Nc1cc(CF)c(Oc2ccc(Cl)c(C(C)(C)C)c2)cc1C [Compound 1, N-ethyl-N-methyl-N′-[4-(3-tert-butyl-4-chlorophenoxy)-5-fluoromethyl-2-methylphenyl]formamidine]
pest or weed control at 1000 ppm [1, 6]: ≥ 70%
pest or weed control at 1000 ppm [2, 7]: ≥ 70%

logP ([3]; logP acid, acid): 2.17
Compound: CCN(C)C=Nc1cc(C(F)F)c(Oc2cccc(C(C)F)c2)cc1C (centres unmarked) [Compound 16, N-ethyl-N-methyl-N′-{4-[3-(1-fluoroethyl)-phenoxy]-5-difluoromethyl-2-methylphenyl}formamidine]
pest or weed control at 500 ppm [5, 8]: ≥ 70%

Compound: Cc1cc(Oc2ccc(Cl)c(C(F)(F)F)c2)c(C(F)(F)F)cc1N=CN1CCCCC1 [Compound 7, N-piperidinyl-N′-[4-(3-trifluoromethyl-4-chlorophenoxy)-5-trifluoromethyl-2-methylphenyl]formamidine]
logP acid ([3]; acid): 2.98
logP neutral ([3]; neutral): 6.19

logP ([3]; logP acid, acid): 2.82
Compound: CCN(C)C=Nc1cc(C(F)F)c(Oc2ccc(Cl)c(C(C)(C)C)c2)cc1C [Compound 9, N-ethyl-N-methyl-N′-[4-(3-tert-butyl-4-chlorophenoxy)-5-difluoromethyl-2-methylphenyl]formamidine]
pest or weed control at 1000 ppm [1, 6]: ≥ 70%
pest or weed control at 1000 ppm [2, 7]: ≥ 70%
pest or weed control at 500 ppm [5, 8]: ≥ 70%

Compound: Cc1c([N+](=O)[O-])ccc(Cl)c1C(F)(F)F [4-Chloro-3-trifluoromethyl-2-methylnitrobenzene]
log P (HCOOH) ([3]; HCOOH): 3.60

Compound: CCN(C)C=Nc1cc(C(F)F)c(Oc2cccc(C(C)O)c2)cc1C (centres unmarked) [Compound 15, N-ethyl-N-methyl-N′-{4-[3-(1-hydroxyethyl)-phenoxy]-5-difluoromethyl-2-methylphenyl}formamidine]
pest or weed control at 500 ppm [5]: ≥ 70%
logP ([3]; logP acid, acid): 1.65

logP ([3]; logP acid, acid): 3.01
logP ([3]; logP neutral, neutral): 6.15
Compound: CCCN(C)C=Nc1cc(C(F)(F)F)c(Oc2ccc(Cl)c(C(F)(F)F)c2)cc1C [Compound 6, N-propyl-N-methyl-N′-[4-(3-trifluoromethyl-4-chlorophenoxy)-5-trifluoromethyl-2-methylphenyl]formamidine]
pest or weed control at 1000 ppm [1, 6]: ≥ 70%
pest or weed control at 1000 ppm [2, 7]: ≥ 70%
pest or weed control at 500 ppm [5, 8]: ≥ 70%

Compound: CCN(C)C=Nc1cc(C(F)F)c(Oc2ccc(Cl)c(Cl)c2)cc1C [Compound 10, N-ethyl-N-methyl-N′-[4-(3,4-dichlorophenoxy)-5-difluoromethyl-2-methylphenyl]formamidine]
pest or weed control at 1000 ppm [1]: ≥ 70%
pest or weed control at 1000 ppm [2]: ≥ 70%
pest or weed control at 500 ppm [5]: ≥ 70%
logP ([3]; logP acid, acid): 2.31

Compound: CCN(C)C=Nc1cc(C(F)(F)F)c(-c2ccc(C(C)(C)C)cc2)cc1C [Compound 12]
pest or weed control at 1000 ppm [1]: ≥ 70%
pest or weed control at 1000 ppm [2]: ≥ 70%
pest or weed control at 500 ppm [5]: ≥ 70%
logP ([3]; logP acid, acid): 2.74
logP ([3]; logP neutral, neutral): 6.15

logP ([3]; logP acid, acid): 3.26
logP ([3]; logP neutral, neutral): 6.68
Compound: CCN(C)C=Nc1cc(C(F)(F)F)c(Oc2ccc(Cl)c(C(C)(C)C)c2)cc1C [Compound 3, N-ethyl-N-methyl-N′-[4-(3-tert-butyl-4-chlorophenoxy)-5-trifluoromethyl-2-methylphenyl]formamidine]
pest or weed control at 1000 ppm [1, 6]: ≥ 70%
pest or weed control at 1000 ppm [2, 7]: ≥ 70%
pest or weed control at 500 ppm [5, 8]: ≥ 70%

logP ([3]; logP acid, acid): 2.52
logP ([3]; logP neutral, neutral): 6.04
logP ([3]; pH 2.3, log P (pH2.3), pH 2.3): 2.52
Compound: CCN(C)C=Nc1cc(C(F)(F)F)c(Oc2cccc(C(C)(C)C)c2)cc1C [Compound 11, N-ethyl-N-methyl-N′-[4-(3-tert-butylphenoxy)-5-trifluoromethyl-2-methylphenyl]formamidine]

logP ([3]; logP acid, acid): 2.97
Compound: CCN(C)C=Nc1cc(C(F)F)c(Oc2ccc(Cl)c(C(C)C)c2)cc1C [Compound 17, N-ethyl-N-methyl-N′-[4-(3-isopropyl-4-chlorophenoxy)-5-difluoromethyl-2-methylphenyl]formamidine]

logP ([3]; logP acid, acid): 2.81
logP ([3]; logP neutral, neutral): 5.77
Compound: CCN(C)C=Nc1cc(C(F)(F)F)c(Oc2ccc(Cl)c(C(F)(F)F)c2)cc1C [Compound 5, N-ethyl-N-methyl-N′-[4-(3-trifluoromethyl-4-chlorophenoxy)-5-trifluoromethyl-2-methylphenyl]formamidine]
pest or weed control at 500 ppm [5, 8]: ≥ 70%

logP ([3]; logP acid, acid): 2.5
Compound: CCN(C)C=Nc1cc(C(F)F)c(Oc2cccc(C(C)C)c2)cc1C [Compound 18, N-ethyl-N-methyl-N′-[4-(3-iso-propylphenoxy)-5-difluoromethyl-2-methylphenyl]formamidine]

Reference: patent publication US8299301B2 (priority 2007, dated 2012)
